Reference: ChEMBL document CHEMBL1129149, “Synthesis and biological evaluation of 4-alkoxysubstituted trinems. Part II” (1996)
Converted amounts (≈) assume the structure as drawn.

Columns and labels:
Format in all cases: functional
Enterococcus faecalis = experiment: In vitro antibacterial activity against […] 850 strain and compared to imipenem
Staphylococcus aureus [1] = experiment: In vitro antibacterial activity against Staphylococcus aureus 853E beta-lactamase producing strain and compared to imipenem,
Pseudomonas aeruginosa = experiment: In vitro antibacterial activity against Pseudomonas aeruginosa 1911E strain and compared to imipenem
Staphylococcus aureus [2] = experiment: In vitro antibacterial activity against Staphylococcus aureus 663E strain and compared to imipenem
Escherichia coli [3] = experiment: In vitro antibacterial activity against Escherichia coli 1919E beta-lactamase producing strain and compared to imipenem
Escherichia coli [4] = experiment: In vitro antibacterial activity against Escherichia coli 1850E strain and compared to imipenem
Clostridium perfringens = experiment: In vitro antibacterial activity against Clostridium perfringens 615E strain and compared to imipenem

Row | Compound | MIC (Enterococcus faecalis) | MIC (Staphylococcus aureus [1]) | MIC (Pseudomonas aeruginosa) | MIC (Staphylococcus aureus [2]) | MIC (Escherichia coli [3]) | MIC (Escherichia coli [4]) | MIC (Clostridium perfringens)
1 | C[C@@H](O)[C@H]1C(=O)N2C(C(=O)[O-])=C3[C@@H](OCCCO)CCC[C@@H]3[C@H]12.[Na+] | 8 µg/mL | 0.5 µg/mL | > 32 µg/mL | 0.2 µg/mL | 1 µg/mL | 2 µg/mL | 30 µg/mL
2 | C[C@@H](O)[C@H]1C(=O)N2C(C(=O)[O-])=C3[C@@H](OCCCN)CCC[C@@H]3[C@H]12.[Na+] | 4 µg/mL | 0.2 µg/mL | 16 µg/mL | 0.2 µg/mL | 0.5 µg/mL | 0.5 µg/mL | 60 µg/mL
3 | C[C@@H](O)[C@H]1C(=O)N2C(C(=O)[O-])=C3[C@@H](OCCN=[N+]=[N-])CCC[C@@H]3[C@H]12.[Na+] | 4 µg/mL | 0.5 µg/mL | > 32 µg/mL | 0.25 µg/mL | 1 µg/mL | 8 µg/mL | 30 µg/mL
4 | C[C@@H](O)[C@H]1C(=O)N2C(C(=O)[O-])=C3[C@@H](OCC/N=C/N)CCC[C@@H]3[C@H]12.[Na+] | 2 µg/mL | 0.5 µg/mL | 32 µg/mL | 0.25 µg/mL | 1 µg/mL | 1 µg/mL | 120 µg/mL
5 | C[C@@H](O)[C@H]1C(=O)N2C(C(=O)[O-])=C3[C@@H](OCCCN=[N+]=[N-])CCC[C@@H]3[C@H]12.[Na+] | 8 µg/mL | 0.5 µg/mL | > 32 µg/mL | 0.2 µg/mL | 1 µg/mL | 8 µg/mL | 60 µg/mL
6 | C/C(N)=N\CCO[C@H]1CCC[C@H]2C1=C(C(=O)[O-])N1C(=O)[C@H]([C@@H](C)O)[C@@H]21.[Na+] | 16 µg/mL | 2 µg/mL | 32 µg/mL | 1 µg/mL | 0.5 µg/mL | 1 µg/mL | 120 µg/mL
7 | C[C@@H](O)[C@H]1C(=O)N2C(C(=O)[O-])=C3[C@@H](OCCN)CCC[C@@H]3[C@H]12.[Na+] | 8 µg/mL | 0.5 µg/mL | 8 µg/mL | 0.5 µg/mL | 0.5 µg/mL | 0.5 µg/mL | 120 µg/mL
8 | C[C@@H](O)[C@H]1C(=O)N2C(C(=O)O)=C(SCCNC=N)C[C@H]12 [IMIPENEM ANHYDROUS] | 2 µg/mL (≈ 6.68 µM) | 0.12 µg/mL (≈ 0.401 µM) | 4 µg/mL (≈ 13.4 µM) | 0.12 µg/mL (≈ 0.401 µM) | 0.5 µg/mL (≈ 1.67 µM) | 0.5 µg/mL (≈ 1.67 µM) | 30 µg/mL (≈ 100 µM)
